We go through three compounds from PMC7163397 (Journal of the American Chemical Society, 2017).

One assay concerns A. baumannii. Nature of the assay: DiBAC4 membrane depolarization on A. baumannii. Type of assay: cell-based, Acinetobacter baumannii. Particulars: polymyxin as positive control.
For another assay, the system named is bacterial membrane. The note with it: bacterium not stated; ref [6b],[13],[15]; cited from earlier work.
Another assay has as its system E. faecium. Briefly: DiBAC4 membrane depolarization on E. faecium. Type of assay: cell-based, Enterococcus faecium. Particulars: deoxycholate as positive control.

In the case of polymyxin, the “Membrane depolarization (DiBAC4 fluorescence change)” value in the assay with A. baumannii was “rapidly enhanced DiBAC4 fluorescence”.
In the case of tridecaptin, the “Membrane depolarization in DiBAC4 assay” value in the assay with bacterial membrane was “does not depolarize the membrane”.
Take `C[C@H](CCC(=O)O)[C@H]1CC[C@H]2[C@@H]3CC[C@@H]4C[C@H](O)CC[C@]4(C)[C@H]3C[C@H](O)[C@]12C` [sodium deoxycholate]: the “Membrane depolarization (DiBAC4 fluorescence change)” value in the assay on E. faecium is “rapidly enhanced DiBAC4 fluorescence”.
